Tests used:
[1] = LNP particle size, polydispersity index and charge by Zeta Sizer; assay type: physicochemical; conditions: LNP lipid:DOPE:Cholesterol:DMG-PEG 35:20:43.5:1.5, firefly luciferase saRNA; for Polydispersity Index (PI) / Z-average (nm): N/P approx. 40/1
Method: Cationic lipids, DOPE, Cholesterol and DMG-PEG lipid were solubilized in ethanol or DMSO at a molar ratio of 35:20:43.5:1.5 and a concentration of 100:25:20:25 μg/μL for C12-200 or 170:25:20:25 μg/μL for the comparator lipids. Lipid nanoparticles (LNP) were prepared by targeting an N/P ratio of approximately 40/1 with saRNA. Briefly, the firefly luciferase saRNA of approximately 9659 nucleotides was diluted to 0.5 mg/mL in 5 mM citrate buffer, pH 4.5. Microfluidic mixer (Ignite from Precision Nanosystems, California, USA) was used to mix the lipid solution with the saRNA aqueous solution at a ratio of about 1:3 (vol/vol) with total flow rates above 10 ml/min. The ethanol was then removed, and the external buffer replaced with 10 mM TRIS-HCL, PH 7.4, by dialysis. Finally, the lipid nanoparticles were filtered through a 0.2 μm pore sterile filter. Lipid nanoparticle particle size was 50-150 nm diameter and polydispersity index (PI) of 0.1-0.4 as determined by Zeta Sizer (Malvern Panalytical, UK). The charge of the formulation was also measured by Zeta Sizer and ranged between 20 to −20 mV.

[2] = system: expression of the luciferase saRNA; test: In vivo bioluminescent imaging after intramuscular injection of LNP-formulated luciferase saRNA; conditions: 1 μg LNP-formulated luciferase saRNA intramuscularly, female SWISS mice
Method: (§1) Female SWISS mice (6 weeks old) were purchased from Janvier Laboratories (Paris, France) and kept in individually ventilated cages with access to food and water ad libitum. Mice were anesthetized with isoflurane (Zoetis, Louvain-La-Neuve, Belgium) (5% for induction and 2% for maintenance) and intramuscularly injected with a total of 1 μg in 100 μL Tris-HCL (50 μL per leg) LNP-formulated luciferase saRNA (for each group n=7). The expression of the luciferase induced bioluminescence was measured via non-invasive In vivo bioluminescent imaging (In vivo Imaging System (IVIS) Lumina III, Perkin Elmer, Waltham, Massachusetts, USA), 10 minutes after subcutaneous injection of […] of D-luciferin (GoldBio, Saint Louis, Missouri, USA, #LUCK-1G) were measured in day 0 (before injection), day 1, day 3, day 5, day 7, day 10, day 15 and day 20.

[3] = saRNA loading / encapsulation efficiency, Quant-IT RiboGreen assay; assay type: physicochemical; conditions: LNP lipid:DOPE:Cholesterol:DMG-PEG 35:20:43.5:1.5, firefly luciferase saRNA
Method: The saRNA loading in LNP formulations was quantified using a Quant-IT RiboGreen assay (Thermo Fisher Scientific, Waltham, Massachusetts, USA) as previously described. 14 samples were diluted tenfold in 1x Tris HCL-EDTA (TE) buffer (10 mM Tris-HCL, 1 mM EDTA, pH 7.5) with or without 2% (v/v) Triton X-100 (Sigma-Aldrich, Saint Louis, Missouri, USA). Standard solutions were also prepared in 1xTE with or without 2% (v/v) Triton X-100 to account for any variation in fluorescence. The assay was performed according to the manufacturer's protocol. Samples were loaded on a black 96-well plate and analysed for fluorescence on a microplate reader (Tecan Infinite® 200 PRO) at an excitation of 485 nm and emission at 528 nm. Encapsulation efficiency was calculated between 80-100%.

[4] = Weight evolution of the animals following administration of LNPs; assay type: in vivo; conditions: female SWISS mice
Method: as §1

[5] = Day 1, 1 μg LNP-formulated saRNA intramuscularly
[6] = Day 3, 1 μg LNP-formulated saRNA intramuscularly
[7] = Day 5, 1 μg LNP-formulated saRNA intramuscularly
[8] = Day 7, 1 μg LNP-formulated saRNA intramuscularly
[9] = Day 10, 1 μg LNP-formulated saRNA intramuscularly
[10] = Day 15, 1 μg LNP-formulated saRNA intramuscularly
[11] = Day 20, 1 μg LNP-formulated saRNA intramuscularly

SMILES: CCCCCCCCC(CCCCCC)C(=O)OCCCCN(CCCCOC(=O)C(CCCCCC)CCCCCCCC)CCN(CCCCOC(=O)C(CCCCCC)CCCCCCCC)CCN1CCN(CCN(CCCCOC(=O)C(CCCCCC)CCCCCCCC)CCCCOC(=O)C(CCCCCC)CCCCCCCC)CC1 (centres unmarked) [Compound 9-30, ((2-(4-(2-((2-(bis(4-((2-hexyldecanoyl)oxy)butyl)amino)ethyl) (4-((2-hexyldecanoyl)oxy)butyl)amino)ethyl)piperazin-1-yl)ethyl)azanediyl) bis(butane-4,1-diyl)bis(2-hexyldecanoate)]
- Zetapotential (mV) [1]: −8.56 mV
- Polydispersity Index (PI) [1]: 0.17
- Z-average (nm) [1]: 115.36 nm
- Bioluminescence expression of LNPs ([2]; Day 1): 2.31E+06
- Bioluminescence expression of LNPs ([2]; Day 3): 2.87E+07
- Bioluminescence expression of LNPs ([2]; Day 5): 6.18E+07
- Bioluminescence expression of LNPs ([2]; Day 7): 9.09E+07
- Bioluminescence expression of LNPs ([2]; Day 10): 2.84E+07
- Bioluminescence expression of LNPs ([2]; Day 15): 1.67E+05
- Bioluminescence expression of LNPs ([2]; Day 20): 1.67E+05
- Encapsulation (%) [3]: 94.22%
- Weight ([4]; Day 0): 29.39 g
- Weight [4, 5]: 28.23 g
- Weight [4, 6]: 29.73 g
- Weight [4, 7]: 29.77 g
- Weight [4, 8]: 30.46 g
- Weight [4, 9]: 31.20 g
- Weight [4, 10]: 30.96 g
- Weight [4, 11]: 32.00 g

SMILES: CCCCCCC(CCCC)C(=O)OCCN(CCOC(=O)C(CCCC)CCCCCC)CCN1CCN(CCN(CCOC(=O)C(CCCC)CCCCCC)CCOC(=O)C(CCCC)CCCCCC)CC1 (centres unmarked) [Compound 9-32, ((piperazine-1,4-diylbis(ethane-2,1-diyl))bis(azanetriyl))tetrakis(ethane-2,1-diyl) tetrakis(2-butyloctanoate)]
- Zetapotential (mV) [1]: −16.38 mV
- Polydispersity Index (PI) [1]: 0.17
- Z-average (nm) [1]: 54.53 nm
- Bioluminescence expression of LNPs ([2]; Day 1): 5.13E+06
- Bioluminescence expression of LNPs ([2]; Day 3): 1.31E+08
- Bioluminescence expression of LNPs ([2]; Day 5): 2.76E+08
- Bioluminescence expression of LNPs ([2]; Day 7): 3.71E+08
- Bioluminescence expression of LNPs ([2]; Day 10): 1.08E+07
- Bioluminescence expression of LNPs ([2]; Day 15): 6.35E+05
- Bioluminescence expression of LNPs ([2]; Day 20): 1.29E+05
- Encapsulation (%) [3]: 93.33%
- Weight ([4]; Day 0): 27.00 g
- Weight [4, 5]: 26.94 g
- Weight [4, 6]: 28.46 g
- Weight [4, 7]: 28.26 g
- Weight [4, 8]: 28.11 g
- Weight [4, 9]: 27.91 g
- Weight [4, 10]: 29.69 g
- Weight [4, 11]: 30.94 g

SMILES: CCCCCCC(CCCC)C(=O)OCCCCN(CCCCOC(=O)C(CCCC)CCCCCC)CCN1CCN(CCN(CCCCOC(=O)C(CCCC)CCCCCC)CCCCOC(=O)C(CCCC)CCCCCC)CC1 (centres unmarked) [Compound 9-33, ((piperazine-1,4-diylbis(ethane-2,1-diyl))bis(azanetriyl))tetrakis(butane-4,1-diyl) tetrakis(2-butyloctanoate)]
- Zetapotential (mV) [1]: −13.70 mV
- Polydispersity Index (PI) [1]: 0.22
- Z-average (nm) [1]: 86.24 nm
- Bioluminescence expression of LNPs ([2]; Day 1): 3.79E+07
- Bioluminescence expression of LNPs ([2]; Day 3): 6.90E+08
- Bioluminescence expression of LNPs ([2]; Day 5): 1.45E+09
- Bioluminescence expression of LNPs ([2]; Day 7): 1.02E+09
- Bioluminescence expression of LNPs ([2]; Day 10): 5.76E+06
- Bioluminescence expression of LNPs ([2]; Day 15): 5.96E+05
- Bioluminescence expression of LNPs ([2]; Day 20): 1.21E+05
- Encapsulation (%) [3]: 92.26%
- Weight ([4]; Day 0): 26.83 g
- Weight [4, 5]: 25.36 g
- Weight [4, 6]: 27.37 g
- Weight [4, 7]: 26.96 g
- Weight [4, 8]: 27.29 g
- Weight [4, 9]: 27.20 g
- Weight [4, 10]: 28.79 g
- Weight [4, 11]: 29.60 g

SMILES: CCCCCCC(CCCC)C(=O)OCCCCCCN(CCCCCCOC(=O)C(CCCC)CCCCCC)CCN1CCN(CCN(CCCCCCOC(=O)C(CCCC)CCCCCC)CCCCCCOC(=O)C(CCCC)CCCCCC)CC1 (centres unmarked) [Compound 9-34, ((piperazine-1,4-diylbis(ethane-2,1-diyl))bis(azanetriyl))tetrakis(hexane-6,1-diyl) tetrakis(2-butyloctanoate)]
- Zetapotential (mV) [1]: −7.92 mV
- Polydispersity Index (PI) [1]: 0.16
- Z-average (nm) [1]: 71.78 nm
- Bioluminescence expression of LNPs ([2]; Day 1): 4.79E+07
- Bioluminescence expression of LNPs ([2]; Day 3): 7.26E+08
- Bioluminescence expression of LNPs ([2]; Day 5): 7.42E+08
- Bioluminescence expression of LNPs ([2]; Day 7): 9.12E+08
- Bioluminescence expression of LNPs ([2]; Day 10): 4.70E+07
- Bioluminescence expression of LNPs ([2]; Day 15): 1.43E+05
- Bioluminescence expression of LNPs ([2]; Day 20): 3.37E+04
- Encapsulation (%) [3]: 94.93%
- Weight ([4]; Day 0): 27.77 g
- Weight [4, 5]: 26.14 g
- Weight [4, 6]: 28.33 g
- Weight [4, 7]: 28.51 g
- Weight [4, 8]: 28.49 g
- Weight [4, 9]: 28.97 g
- Weight [4, 10]: 30.24 g
- Weight [4, 11]: 31.51 g

SMILES: CCCCCCCCC(CCCCCC)C(=O)OCCCCN(CCCCOC(=O)C(CCCCCC)CCCCCCCC)CCN1CCN(CCN(CCCCOC(=O)C(CCCCCC)CCCCCCCC)CCCCOC(=O)C(CCCCCC)CCCCCCCC)CC1 (centres unmarked) [Compound 9-36, ((piperazine-1,4-diylbis(ethane-2,1-diyl))bis(azanetriyl))tetrakis(butane-4,1-diyl) tetrakis(2-hexyldecanoate)]
- Zetapotential (mV) [1]: −10.52 mV
- Polydispersity Index (PI) [1]: 0.20
- Z-average (nm) [1]: 105.70 nm
- Bioluminescence expression of LNPs ([2]; Day 1): 4.28E+06
- Bioluminescence expression of LNPs ([2]; Day 3): 1.92E+08
- Bioluminescence expression of LNPs ([2]; Day 5): 8.44E+08
- Bioluminescence expression of LNPs ([2]; Day 7): 6.10E+08
- Bioluminescence expression of LNPs ([2]; Day 10): 5.56E+06
- Bioluminescence expression of LNPs ([2]; Day 15): 2.57E+05
- Bioluminescence expression of LNPs ([2]; Day 20): 1.16E+05
- Encapsulation (%) [3]: 96.25%
- Weight ([4]; Day 0): 29.09 g
- Weight [4, 5]: 29.49 g
- Weight [4, 6]: 31.49 g
- Weight [4, 7]: 30.09 g
- Weight [4, 8]: 30.36 g
- Weight [4, 9]: 30.56 g
- Weight [4, 10]: 31.33 g
- Weight [4, 11]: 32.30 g

From US20250236599A1, “LIPID NANOPARTICLES FOR OLIGONUCLEOTIDE DELIVERY” (ZIPHIUS NV, priority 2021, published 2025)
